Reference: PMC7560827, “Immunodominant proteins P1 and P40/P90 from human pathogen Mycoplasma pneumoniae” (Nature Communications, 2020)

What was measured:
[1] = target: T1, P40/P90N (Mycoplasmoides pneumoniae, UniProt Q50341)
T1 construct: gene orf6

[2] = target: T1, P40/P90N; remark: listed apart in the source

Structure (SMILES): CC(=O)N[C@H]1[C@H]([C@H](O)[C@H](O)CO)O[C@@](OC[C@H]2O[C@@H](O[C@H]3[C@H](O)[C@@H](O)C(O)O[C@@H]3CO)[C@H](O)[C@@H](O)[C@H]2O)(C(=O)O)C[C@@H]1O (some centres unmarked) [6SL]
- X-ray crystal structure, 2.8 Å [1]: 6TM0 for the 6SL complex

Structure (SMILES): CC(=O)N[C@H]1[C@H]([C@H](O)[C@H](O)CO)O[C@@](O[C@H]2[C@@H](O)[C@@H](CO)O[C@@H](O[C@H]3[C@H](O)[C@@H](O)C(O)O[C@@H]3CO)[C@@H]2O)(C(=O)O)C[C@@H]1O (some centres unmarked) [3SL]
- X-ray crystal structure, 3.2 Å [2]: 6TLZ for the 3SL complex
